The values that follow come from US20240390338A1, “METHODS FOR TREATING NEUROGENERATIVE DISEASES” (PTC THERAPEUTICS, INC., priority 2021, published 2024).

The assay has as its system MAPT 3R mRNA. Briefly: RT-qPCR Assay to Quantify MAPT 3R mRNA in Cells. It is filed as cell-based. As to conditions: cells incubated with compound 24 h; 7-point concentration curve; MAPT minigene 3R RT-qPCR with GAPDH assay; EC2X interpolated from dose response curve. The procedure:
RT-qPCR Assay to Quantify MAPT 3R mRNA in Cells
Test compounds were serially diluted 3.16-fold in 100% DMSO to generate a 7-point concentration curve. Aliquots of 0.5 μL of diluted compounds were transferred to a 96-well flat bottom plate by a liquid handler. An aliquot of 0.5 μL DMSO was also transferred to separate wells and used as controls. Duplicate samples were set up for each compound concentration and for the DMSO control.
Cells were thawed and incubated in cell culture media (DMEM, 10% FBS, and 1% antibiotic cocktail) for 72 h. Cells were trypsinized, counted, and re-suspended to a concentration of 200,000 cells/mL in cell culture media. A 100 μL aliquot of the cell suspensions were plated at 20,000 cells per well in the compound containing 96 well microtiter plate and incubated for in a cell culture incubator (37° C., 5% CO2, 100% relative humidity).
After 24 h, media was aspirated from the cells and 20 μL of the RCL2 lysis buffer (10 mM Tris-HCL pH 7.4, 150 mM NaCl, 0.33% IGEPAL® CA-630) was added to each well and incubated at RT for 1 min. Chilled nuclease free water (140 μL per well) was added and the plates were immediately transferred on ice. After 1 min on ice, plates were frozen at −80° C. overnight.
Preparation of RT-qPCR Reaction Mixture:
An aliquot of 4 μL/well of the cell lysates was transferred using the liquid handler to the Armadillo 384-Well PCR plate containing 6 μL/well of the RT-qPCR reaction mixture that was prepared as detailed above. The plates were then sealed with MicroAmp™ Optical Adhesive Film followed by spinning down for 1 min and placed in the CFX384 thermocycler (BioRad).
The RT-qPCR was carried out at the following temperatures for the indicated time: • Step 1: 48° C. (30 min) • Step 2: 95° C. (10 min) • Step 3: 95° C. (15 sec) • Step 4: 60° C. (1 min); then, repeated Steps 3 and 4 for a total of 40 cycles.
The percent exon 4 skipping was calculated for each dose of compound treatment using Equations 1 and 2.
Data were fit to a dose response curve and the EC2X was interpolated using XLfit® statistical and curve fitting package.
An EC2X value between >1000 nM and ≤1500 nM is indicated by two stars (**). An EC2X value between >500 nM and ≤1000 nM is indicated by three stars (***). An EC2X value between >50 nM and ≤500 nM is indicated by four stars (****). An EC2X value ≤50 nM is indicated by five stars (*****).
As for `C[C@H](N)C(F)c1sc2c(NCc3ccco3)cc(Cl)nc2c1Br` (stereo partly drawn) [Cpd 154, 2-[(2S)-2-amino-1-fluoropropyl]-3-bromo-5-chloro-N-[(furan-2-yl)methyl]thieno[3,2-b]pyridin-7-amine], the EC (2-fold increase) is no more than 0.05 µM.

As to `C[C@H](N)Cc1cc2nc(Cl)cc(NCc3ccco3)c2s1` [Cpd 16, 2-[(2S)-2-aminopropyl]-5-chloro-N-[(furan-2-yl)methyl]thieno[3,2-b]pyridin-7-amine], the EC (2-fold increase) fell in the range of 0.05 to 0.5 µM.

As to `CC[C@H](N)Cc1sc2c(NCc3cccs3)cc(Cl)nc2c1Cl` [Cpd 83, 2-[(2S)-2-aminobutyl]-3,5-dichloro-N-[(thiophen-2-yl)methyl]thieno[3,2-b]pyridin-7-amine], the EC (2-fold increase) was no more than 0.05 µM.

With `CSC[C@H](N)Cc1sc2c(NCc3ccco3)cc(Cl)nc2c1Cl` [Cpd 114, 2-[(2R)-2-amino-3-(methylsulfanyl)propyl]-3,5-dichloro-N-[(furan-2-yl)methyl]thieno[3,2-b]pyridin-7-amine], the EC (2-fold increase) was no more than 0.05 µM.

In the case of `C[C@H](N)Cc1sc2c(NCc3cccs3)cc(Cl)nc2c1Cl` [Cpd 52, 2-[(2S)-2-aminopropyl]-3,5-dichloro-N-[(thiophen-2-yl)methyl]thieno[3,2-b]pyridin-7-amine], the EC (2-fold increase) was no more than 0.05 µM.

Consider `CC[C@H](N)Cc1sc2c(NCc3cccs3)cc(Cl)nc2c1Br` [Cpd 73, 2-[(2S)-2-aminobutyl]-3-bromo-5-chloro-N-[(thiophen-2-yl)methyl]thieno[3,2-b]pyridin-7-amine], for which the EC (2-fold increase) is no more than 0.05 µM.

In the case of `N[C@@H](CF)Cc1sc2c(NCc3cccs3)cc(Cl)nc2c1Br` [Cpd 76, 2-[(2R)-2-amino-3-fluoropropyl]-3-bromo-5-chloro-N-[(thiophen-2-yl)methyl]thieno[3,2-b]pyridin-7-amine], the EC (2-fold increase) was no more than 0.05 µM.

As for `Cc1c(C[C@H](C)N)sc2c(NCc3ccccc3F)cc(Cl)nc12` [Cpd 29, 2-[(2S)-2-aminopropyl]-5-chloro-N-[(2-fluorophenyl)methyl]-3-methylthieno[3,2-b]pyridin-7-amine], the EC (2-fold increase) is no more than 0.05 µM.

Regarding `C[C@H](N)Cc1sc2c(NCc3cccs3)cc(Cl)nc2c1Br` [Cpd 53, 2-[(2S)-2-aminopropyl]-3-bromo-5-chloro-N-[(thiophen-2-yl)methyl]thieno[3,2-b]pyridin-7-amine], the EC (2-fold increase) is no more than 0.05 µM.

Regarding `C[C@H](N)Cc1sc2c(NCc3ccco3)cc(Cl)nc2c1C1CC1` [Cpd 51, 2-[(2S)-2-aminopropyl]-5-chloro-3-cyclopropyl-N-[(furan-2-yl)methyl]thieno[3,2-b]pyridin-7-amine], the EC (2-fold increase) was no more than 0.05 µM.

Regarding `N[C@@H](CF)Cc1sc2c(NCc3ccco3)cc(Cl)nc2c1Cl` [Cpd 94, 2-[(2R)-2-amino-3-fluoropropyl]-3,5-dichloro-N-[(furan-2-yl)methyl]thieno[3,2-b]pyridin-7-amine], the EC (2-fold increase) was no more than 0.05 µM.

Take `N[C@@H](CCF)Cc1sc2c(NCc3cccs3)cc(Cl)nc2c1Br` [Cpd 74, 2-[(2S)-2-amino-4-fluorobutyl]-3-bromo-5-chloro-N-[(thiophen-2-yl)methyl]thieno[3,2-b]pyridin-7-amine]: the EC (2-fold increase) is no more than 0.05 µM.

`Cc1c(C[C@@H](N)CC(C)C)sc2c(NCc3cccs3)cc(Cl)nc12` [Cpd 61, 2-[(2S)-2-amino-4-methylpentyl]-5-chloro-3-methyl-N-[(thiophen-2-yl)methyl]thieno[3,2-b]pyridin-7-amine]: the EC (2-fold increase) was no more than 0.05 µM.

Take `N[C@@H](CCF)Cc1sc2c(NCc3ccco3)cc(Cl)nc2c1Cl` [Cpd 93, 2-[(2S)-2-amino-4-fluorobutyl]-3,5-dichloro-N-[(furan-2-yl)methyl]thieno[3,2-b]pyridin-7-amine]: the EC (2-fold increase) was in the range of 0.05 to 0.5 µM.

With `N#CC[C@H](N)Cc1sc2c(NCc3ccco3)cc(Cl)nc2c1Br` [Cpd 103, (3S)-3-amino-4-(3-bromo-5-chloro-7-{[(furan-2-yl)methyl]amino}thieno[3,2-b]pyridin-2-yl)butanenitrile], the EC (2-fold increase) fell in the range of 0.05 to 0.5 µM.
